Key:
GARFT = settings: cited from earlier work
L1210 = experiment: In vitro growth inhibition, L1210, MTT, Example 2; format: cell-based; settings: Mus musculus, Continuous (72-hour) exposure, mean IC50, read-out: IC50 Cell Culture L1210
Method: All cultures were maintained at 37° C., 5% air-CO2 in a humidified incubator.
Stock solutions of the inhibitors were prepared in 10 mM sodium bicarbonate in water and stored in 1 ml aliquots at -20° C. for cell culture experiments. Cell growth inhibition was measured by a modification of the method of Mosmann, J. Immunol. Methods 65 (1983), 55-63.
Mid-log phase cells of each cell line were diluted to 18,500 cells/ml in fresh RPMI growth medium (Mediatech, Washington, DC) supplemented with dialyzed fetal calf serum (Hyclone Laboratories Inc., Logan, Utah) and then aliquotted into columns 2 through 12 of 96-well microtiter plates. Column 1 was filled with the same volume ([…]) of fresh medium, without cells, for use as a blank. The plates were then placed in a 37° C., 5% air-CO2 incubator. After 1 to 4 hours, plates were removed from the incubator followed by addition of Compound (21) at 10×final concentration, […] in binary dilutions, to columns 12 to 4. […] The extent of metabolized MTT was measured spectrophotometrically at 540 nm on a Molecular Devices Vmax™ kinetic microplate reader. The concentration of drug required to reduce cell growth by 50% as measured by MTT metabolism was determined by interpolation between the O.D. (minus blank) immediately above and below 50% of control O.D. (minus blank). […]

6C3HED lymphosarcoma = experiment: In vivo antitumor activity, 6C3HED lymphosarcoma; parameters: species or system C3H/He female mice; settings: intraperitoneal, once daily for nine days; for % Inhibition: tumor mass day 11
Method: (§1) On day zero, 2 mm^2 trocar fragments of 6C3HED lymphosarcoma were implanted subcutaneously in the axillary region into groups of six C3H/He female mice. Starting on day 1, the test compound was administered intraperitoneally in 40% Encapsin given once daily for nine days. Control animals received identical treatment without test compound. The percentage inhibition given in Table 5 below was calculated by comparing the mass of the control tumors (receiving diluent only) on day 11 to those of animals receiving test compound.

[1] = tested on: C3H/BA mammary adenocarcinoma; experiment: In vivo antitumor activity, C3H/BA mammary adenocarcinoma; parameters: species or system C3H/He female mice; settings: intraperitoneal, once daily for nine days, tumor mass day 14
Method: as §1, with “C3H/BA mammary adenocarcinoma” for “6C3HED lymphosarcoma”, “percentage of” for “percentage”, “inhibition” for “inhibition given in Table 5 below”, “14” for “11”

| SMILES | GARFT inhibition (GARFT) | IC50 (L1210) [nM] | % Inhibition (6C3HED lymphosarcoma; 12.5 mg/kg) [%] | % Inhibition (6C3HED lymphosarcoma; 25 mg/kg) [%] | % Inhibition (given as toxic) (6C3HED lymphosarcoma; 50 mg/kg, day 11) | % Inhibition ([1]; 5 mg/kg) [%] | % Inhibition ([1]; 10 mg/kg) [%] | % Inhibition ([1]; 20 mg/kg) [%] |
| --- | --- | --- | --- | --- | --- | --- | --- | --- |
| Nc1nc2c(c(=O)[nH]1)CC(CCc1ccc(C(=O)N[C@@H](CCC(=O)O)C(=O)O)cc1)CN2 (some centres unmarked) [5,10-dideazatetrahydrofolic acid] | specific tight binding inhibitor of GARFT | – | – | – | – | – | – | – |
| Nc1nc2c(c(=O)[nH]1)SC(CCc1ccc(C(=O)N[C@@H](CCC(=O)O)C(=O)O)s1)CN2 (stereo partly drawn) [Compound 21, 4-[2-(2-Amino-4-oxo-4,6,7,8-tetrahydro-3H-pyrimido[5,4-6][1,4]thiazin-6-yl)-ethyl]-2,5-thienoylamino-L-glutamic acid] | – | 16 | 100 | 100 | toxic | 16 | 84 | 100 |

— patent US5610319A, “Compound useful as antiproliferative agents and GARFT inhibitors” (Agouron Pharmaceuticals, Inc., priority 1995, dated 1997)
